US8765730B2 (Hoffmann-La Roche Inc, priority 2010, dated 2014)

Biological target: T1, human GPBAR1 receptor (Homo sapiens, UniProt Q8TDU6)
T1 construct: expressed in transfected cells
T1 sequence (Q8TDU6 1-330): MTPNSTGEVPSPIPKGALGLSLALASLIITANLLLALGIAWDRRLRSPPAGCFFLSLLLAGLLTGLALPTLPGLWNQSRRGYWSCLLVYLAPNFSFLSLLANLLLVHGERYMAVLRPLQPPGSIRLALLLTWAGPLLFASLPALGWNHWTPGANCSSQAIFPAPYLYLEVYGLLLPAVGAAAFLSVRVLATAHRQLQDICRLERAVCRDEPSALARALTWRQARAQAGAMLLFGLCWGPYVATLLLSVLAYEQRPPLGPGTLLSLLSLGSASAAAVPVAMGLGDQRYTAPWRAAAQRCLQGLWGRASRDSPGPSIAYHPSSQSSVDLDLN
Test: functional cAMP assay in CHO-dhfr(minus) cells expressing human GPBAR1 receptors
Assay type: cell-based
Conditions: human EC50, functional cAMP assay, 30 min at 30° C.
Procedure, shortened: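 Agonist cAMP read-out: stable GPBAR1 CHO-dhfr− clone, 30 min compound exposure at 30° C following 30 min IBMX (1 mM) preincubation in Krebs Ringer bicarbonate. Time-resolved energy-transfer detection gives EC50; parental CHO cells serve as counter-screen.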

| EC50 | SMILES |
| --- | --- |
| 8 nM | COCc1nnc(-c2ccc([C@@H](C/C(=N\O)c3ccnc(C)c3)c3ccccc3C)cc2)o1 [Example 419, ((−), E)-3-[4-(5-Methoxymethyl-[1,3,4]oxadiazol-2-yl)-phenyl]-1-(2-methyl-pyridin-4-yl)-3-o-tolyl-propan-1-one oxime] |
| 465 nM | Cc1cc(/C(CC(c2ccc(C(=O)O)cc2)c2ccc(F)cc2F)=N/O)ccn1 (stereo not shown) [Example 431, 4-[1-(2,4-Difluoro-phenyl)-3-[(E)-hydroxyimino]-3-(2-methyl-pyridin-4-yl)-propyl]-benzoic acid] |
| 170 nM | Cn1cc(/C(CC(c2ccc(-c3ccc(C(=O)O)cc3)cc2)c2ccc(Cl)cc2F)=N/O)ccc1=O (single isomer, unassigned; (+)) [Example 241, (+)-4′-[1-(4-Chloro-2-fluoro-phenyl)-3-[(E)-hydroxyimino]-3-(1-methyl-6-oxo-1,6-dihydro-pyridin-3-yl)-propyl]-biphenyl-4-carboxylic acid] |
| 27 nM | Cc1cc(C(CC(c2ccc(C#CCCC(=O)O)cc2)c2ccccc2C)=NO)ccn1 (racemic) [Example 111, 5-{4-[3-[Hydroxyimino]-3-(2-methyl-pyridin-4-yl)-1-o-tolyl-propyl]-phenyl}-pent-4-ynoic acid] |
| 566 nM | Cc1cc(Cl)ccc1C(C/C(=N\O)c1ccc(=O)n(C)c1)c1ccc(O)c(F)c1 (stereo not shown) [Example 324, 5-{3-(4-Chloro-2-methyl-phenyl)-3-(3-fluoro-4-hydroxy-phenyl)-1-[(E)-hydroxyimino]-propyl}-1-methyl-1H-pyridin-2-one] |
| 31 nM | CC(=O)N1CC(c2ccc([C@@H](C/C(=N\O)c3ccnc(C)c3)c3ccccc3C)cc2)C1 [Example 483] |
| 57 nM | Cc1cc(/C(CC(c2ccc(C(=O)NC3CC3)cc2)c2ccc(F)cc2F)=N/O)ccn1 (stereo not shown) [Example 432, N-Cyclopropyl-4-[1-(2,4-difluoro-phenyl)-3-[(E)-hydroxyimino]-3-(2-methyl-pyridin-4-yl)-propyl]-benzamide] |
| 5560 nM | COc1ccc(C2(C/C(=N/O)c3ccnc(C)c3)CCCCC2)cc1 [Example 159, (Z)-2-[1-(4-Methoxy-phenyl)-cyclohexyl]-1-(2-methyl-pyridin-4-yl)-ethanone oxime] |
| 12 nM | CCOC(=O)C1CCN(c2ccc([C@@H](C/C(=N\O)c3ccnc(C)c3)c3ccccc3C)cc2)CC1 [Example 265, 1-{4-[(R)-3-[(E)-Hydroxyimino]-3-(2-methyl-pyridin-4-yl)-1-o-tolyl-propyl]-phenyl}-piperidine-4-carboxylic acid ethyl ester] |
| 1030 nM | COc1ccc(C2(C/C(=N\O)c3ccnc(C)c3)CCCCC2)cc1 [Example 158, (E)-2-[1-(4-Methoxy-phenyl)-cyclohexyl]-1-(2-methyl-pyridin-4-yl)-ethanone oxime] |
| 119 nM | Cc1cc(Cl)ccc1C(C/C(=N\O)c1ccc(=O)n(C)c1)c1ccc(Oc2ccc(Cl)c(C(=O)O)c2)cc1 (stereo not shown) [Example 347, 2-Chloro-5-{4-[1-(4-chloro-2-methyl-phenyl)-3-[(E)-hydroxyimino]-3-(1-methyl-6-oxo-1,6-dihydro-pyridin-3-yl)-propyl]-phenoxy}-benzoic acid] |
| 163 nM | CCOC(=O)COc1cccc(-c2ccc(C(C/C(=N\O)c3ccncc3)c3ccccc3)cc2)c1 (stereo not shown) [Example 28, (4′-{3-[(E)-Hydroxyimino]-1-phenyl-3-pyridin-4-yl-propyl}-biphenyl-3-yloxy)-acetic acid ethyl ester] |
| 1 nM | Cc1cc(C(CC(c2ccc(C#CCO)cc2)c2ccccc2C)=NO)ccn1 (racemic) [Example 85, 3-[4-(3-Hydroxy-prop-1-ynyl)-phenyl]-1-(2-methyl-pyridin-4-yl)-3-o-tolyl-propan-1-one oxime] |
| 215 nM | Cc1cc(C(CC(c2ccc(-c3ccc(F)c(C(=O)O)c3)cc2)c2ccccc2C)=NO)ccn1 (racemic) [Example 113, 4-Fluoro-4′-[3-[hydroxyimino]-3-(2-methyl-pyridin-4-yl)-1-o-tolyl-propyl]-biphenyl-3-carboxylic acid] |
| 18 nM | COC(=O)CNC(=O)c1ccc(-c2ccc(C(C/C(=N\O)c3ccc(=O)n(C)c3)c3ccc(Cl)cc3C)cc2)cc1 (stereo not shown) [Example 228, (E)-methyl 2-(4′-(1-(4-chloro-2-methylphenyl)-3-(hydroxyimino)-3-(1-methyl-6-oxo-1,6-dihydropyridin-3-yl)propyl)biphenyl-4-ylcarboxamido)acetate] |
| 23 nM | Cc1cc(/C(C[C@H](c2ccc(CC(=O)NCCO)cc2)c2ccccc2C)=N/O)ccn1 [Example 289, N-(2-Hydroxy-ethyl)-2-{4-[(R)-3-[(E)-hydroxyimino]-3-(2-methyl-pyridin-4-yl)-1-o-tolyl-propyl]-phenyl}-acetamide] |

| EC50 | SMILES |
| --- | --- |
| 169 nM | Cc1cc(/C(C[C@H](c2ccc(Br)cc2)c2ccc(Cl)cc2C)=N/O)ccn1 [Example 386, (R,E)-3-(4-bromophenyl)-3-(4-chloro-2-methylphenyl)-1-(2-methylpyridin-4-yl)propan-1-one oxime] |
| 38 nM | Cc1cc(Cl)ccc1C(C/C(=N\O)c1ccc(=O)n(C)c1)c1ccc(S(C)(=O)=O)cc1 (stereo not shown) [Example 331, (E)-5-(3-(4-chloro-2-methylphenyl)-1-(hydroxyimino)-3-(4-(methylsulfonyl)phenyl)propyl)-1-methylpyridin-2(1H)-one] |
| 453 nM | CC(C)CC(C/C(=N\O)c1ccc(=O)n(C)c1)c1ccc(Br)cc1 (stereo not shown) [Example 170, 5-{3-(4-Bromo-phenyl)-1-[(E)-hydroxyimino]-5-methyl-hexyl}-1-methyl-1H-pyridin-2-one] |
| 5 nM | Cc1cc(F)ccc1C(C/C(=N\O)c1ccc(=O)n(C)c1)c1ccc(-c2ccc(S(N)(=O)=O)cc2)cc1 (stereo not shown) [Example 401, 4′-[1-(4-Fluoro-2-methyl-phenyl)-3-[(E)-hydroxyimino]-3-(1-methyl-6-oxo-1,6-dihydro-pyridin-3-yl)-propyl]-biphenyl-4-sulfonic acid amide] |
| 27 nM | Cc1cc(/C(CC(c2ccc(Br)cc2)c2cc(F)cc(F)c2)=N/O)ccn1 (stereo not shown) [Example 445, 3-(4-Bromo-phenyl)-3-(3,5-difluoro-phenyl)-1-(2-methyl-pyridin-4-yl)-propan-1-one oxime] |
| 95 nM | Cc1cc(Cl)ccc1[C@H](C/C(=N\O)c1ccc(=O)n(C)c1)c1ccc(-c2ccc(C(=O)O)cc2)cc1 (single isomer, unassigned) [Example 393, (+)-4′-[1-(4-Chloro-2-methyl-phenyl)-3-[(E)-hydroxyimino]-3-(1-methyl-6-oxo-1,6-dihydro-pyridin-3-yl)-propyl]-biphenyl-4-carboxylic acid; compound with triethylamine 1:0.9] |
| 225 nM | Cc1ccccc1[C@@H](C/C(=N\O)c1cnc(=O)n(C)c1)c1ccc(Br)cc1 [Example 501, (S,E)-5-(3-(4-Bromophenyl)-1-(hydroxyimino)-3-o-tolylpropyl)-1-methylpyrimidin-2(1H)-one] |
| 164 nM | COCCn1cc(/C(CC(c2ccc(S(C)(=O)=O)cc2)c2ccc(Cl)cc2C)=N/O)ccc1=O (stereo not shown) [Example 341, (E)-5-(3-(4-Chloro-2-methylphenyl)-1-(hydroxyimino)-3-(4-(methylsulfonyl)phenyl)-propyl)-1-(2-methoxyethyl)pyridin-2(1H)-one] |
| 2 nM | C#Cc1ccc([C@@H](CC(=NO)c2ccnc(C)c2)c2ccccc2C)cc1 [Example 287, (R)-3-(4-Ethynyl-phenyl)-1-(2-methyl-pyridin-4-yl)-3-o-tolyl-propan-1-one oxime] |
| 129 nM | Cc1cc(Cl)ccc1C(C/C(=N\O)c1ccc(=O)n(C)c1)c1ccc(C(=O)NCCO)cc1 (stereo not shown) [Example 332, (E)-4-(1-(4-Chloro-2-methylphenyl)-3-(hydroxyimino)-3-(1-methyl-6-oxo-1,6-dihydropyridin-3-yl)propyl)-N-(2-hydroxyethyl)benzamide] |
| 93 nM | Cc1ccccc1C(C/C(=N\O)c1ccc(=O)n(C)c1)c1ccc(C(=O)NCCO)cc1 (stereo not shown) [Example 208, N-(2-Hydroxy-ethyl)-4-[3-[(E)-hydroxyimino]-3-(1-methyl-6-oxo-1,6-dihydro-pyridin-3-yl)-1-o-tolyl-propyl]-benzamide] |
| 28 nM | Cc1cc(/C(C[C@H](c2ccc([C@H]3CC[C@H](C(=O)O)CC3)cc2)c2ccc(Cl)cc2C)=N/O)ccn1 [Example 504, Trans-4-(4-((R,E)-1-(4-Chloro-2-methylphenyl)-3-(hydroxyimino)-3-(2-methylpyridin-4-yl)propyl)phenyl)cyclohexanecarboxylic acid] |
| 41 nM | Cc1ccccc1[C@H](C/C(=N\O)c1ccc(=O)n(C)c1)c1ccc(N2CCC(C(=O)O)CC2)cc1 [Example 497, Sodium (R,E)-1-(4-(3-(Hydroxyimino)-3-(1-methyl-6-oxo-1,6-dihydropyridin-3-yl)-1-o-tolylpropyl)phenyl)piperidine-4-carboxylate] |
| 24 nM | Cn1cc(/C(CC(c2ccc(Br)cc2)c2ccc(Cl)cc2F)=N/O)ccc1=O (single isomer, unassigned; (+)) [Example 239, (+)-5-{3-(4-Bromo-phenyl)-3-(4-chloro-2-fluoro-phenyl)-1-[(E)-hydroxyimino]-propyl}-1-methyl-1H-pyridin-2-one] |
| 41 nM | Cc1cc(/C(C[C@H](c2ccc(Br)cc2)c2ccc(F)cc2F)=N/O)ccn1 (single isomer, unassigned) [Example 426, (−)-3-(4-Bromo-phenyl)-3-(2,4-difluoro-phenyl)-1-(2-methyl-pyridin-4-yl)-propan-1-one oxime] |
